Laboratory results reported in patent EP1189688B1, “W/O TYPE EMULSIONS WITH A HIGH WATER CONTENT CONTAINING MEDIUM POLAR LIPIDS” (Beiersdorf AG, priority 1999, dated 2000).

Assay: Interfacial tension of the lipid against water (measure of polarity)
Format: physicochemical
Settings: lower value = more polar oil
Description: Öle und Fette unterscheiden sich unter anderem in ihrer Polarität, welche schwierig zu definieren ist. Es wurde bereits vorgeschlagen, die Grenzflächenspannung gegenüber Wasser als Maß für den Polaritätsindex eines Öls bzw. einer Ölphase anzunehmen. Dabei gilt, daß die Polarität der betreffenden Ölphase umso größer ist, je niedriger die Grenzflächenspannung zwischen dieser Ölphase und Wasser ist. Erfindungsgemäß wird die Grenzflächenspannung als ein mögliches Maß für die Polarität einer gegebenen Ölkomponente angesehen.
Die Grenzflächenspannung ist diejenige Kraft, die an einer gedachten, in der Grenzfläche zwischen zwei Phasen befindlichen Linie der Länge von einem Meter wirkt. Die physikalische Einheit für diese Grenzflächenspannung errechnet sich klassisch nach der Beziehung Kraft/Länge und wird gewöhnlich in mN/m (Millinewton geteilt durch Meter) wiedergegeben. Sie hat positives Vorzeichen, wenn sie das Bestreben hat, die Grenzfläche zu verkleinern. Im umgekehrten Falle hat sie negatives Vorzeichen.
Die nachfolgende Tabelle 1 führt mittelpolare Lipide auf, die die erfindungsgemäß sind. Die betreffenden Grenzflächenspannungen gegen Wasser sind in der letzten Spalte angegeben. Es ist jedoch auch vorteilhaft, Gemische aus höher- und niederpolaren und dergleichen zu verwenden, sofern gewährleistet ist, daß die Gesamtpolarität der Ölphase im beanspruchten Bereich liegt. Tabelle 1

Molecule | Grenzflächenspannungen gegen Wasser
CCCCCCCCCCCCCCCCCC(=O)OC(C)C [Isopropylstearat, Isopropyl Stearate] | 21,9 mN/m
CCCCCCCCCCCCCCCCCC(=O)OCCCCCCCC [Cetiol® 868, Octyl Stearate] | 28,4 mN/m
CCCCCCCC(=O)OCC(COC(=O)CCCCCCC)OC(=O)CCCCCCC [Trivent® OCG, Tricaprylin] | 20,2 mN/m
CCCCCCCCCCCCCCCCCCOC(=O)CCCCCC [Tegosoft® SH, Stearyl Heptanoate] | 28,7 mN/m
CCCCCCCCC(CO)CCCCCC (centres unmarked) [Isofol® 16, Hexyl Decanol] | 24,3 mN/m
CCCCCCCCCCC(CO)CCCCCCCC (centres unmarked) [Eutanol® G, Octyldodecanol] | 24,8 mN/m
CCCCCCCCCCCCCC(=O)OCC(CCCCCCCC)CCCCCCCCCC (centres unmarked) [MOD, Octyldodeceyl Myristate] | 22,1 mN/m
Octyl lsostearate [Prisorine® 2036] | 29,7 mN/m
